According to patent US10106529B2, “Compounds that modulate intracellular calcium” (CalciMedica, Inc., priority 2011, dated 2018):
pIC50: −log10 of the molar value.

What was measured:
[1] = tested on: RBL-2H3 cells; assay: Fluorescence-based assay of store-operated calcium entry in RBL-2H3 cells; format: cell-based, rat; design: key to RBL-2H3 (IC50, μmol): A, IC50 < 0.6 μM; B, IC50 = 0.6-1.2 μM; C, IC50 > 1.2 μM; — no fit; details: thapsigargin, inhibition of Upslope of fluorescence after calcium addition; for pIC50: Rattus norvegicus, read-out: RBL-2H3 (IC50, μmol)
Description: (§1) Fluorescence-based assays are used for screening the compounds described herein, such as compounds of Formulas (I), (IA), (II), (IIA), (III), (IIIA), (IV), (IVA), (V), (VA), (VI), (VIA), (VII), (VIIA), (VIII), (VIIIA), (IX), (IXA), (X), (XI), (XIA), (XII), or (XIIA) which modulate intracellular calcium.
B. Fluorescence-Based Assay of Store-Operated Calcium Entry in RBL-2H3 Cells.
RBL-2H3 cells are obtained from ATCC and maintained in complete medium with 10% FBS at 37° C./6% CO2.
The day prior to performing the assay, RBL-2H3 cells are plated in 50 μL of complete medium in a 384 well plate. Cells are grown at 37° C./6% CO2 overnight and grow to 50-60% confluence by the next day. On the assay day, 1.5 µM Fluo-4-AM dye (Invitrogen) in complete medium is added and incubated for 1 hour at RT. Cells are washed twice in Ca^2+-free HBSS buffer and 35 μL Ca^2+-free HBSS buffer is added to each well. 10 μL of a test compound prepared in a Ca^2+-free HBSS solution at 4.5× of the desired concentration is added to a well and incubated for 5 minutes at RT. 10 μL of thapsigargin prepared in a Ca^2+-free HBSS solution at 5.5× of the desired concentration (5.5 uM) is added to each well and incubated for an additional 25 minutes. The initial baseline fluorescence signal is measured with a FLIPR^384 (Molecular Devices) plate reader. 5 μL of 12× calcium in HBSS (12 mM) is added and changes in cellular fluorescence are measured with the FLIPR^384 plate reader. In each well, the change in the fluorescent signal as a function of time due to calcium entry into the cell is determined by calculating the difference between the fluorescent signal measured 7 seconds after calcium addition and the initial baseline fluorescence signal at time zero (t=0). This parameter is designated Upslope. The IC50 value is calculated as the concentration at which 50% of the Upslope is inhibited.

[2] = target: T1, Orai1/STIM1 (Homo sapiens, UniProt Q96D31); assay: Fluorescence-based assay of store-operated calcium entry in Orai1/STIM1 stable cells; format: cell-based; design: key to Orai1/STIM1 (IC50, μmol): A, IC50 < 0.6 μM; B, IC50 = 0.6-1.2 μM; C, IC50 > 1.2 μM; — no fit; details: HEK-293 cells stably expressing human STIM1 and Orai1, inhibition of Peak-Basal fluorescence signal after calcium addition; for pIC50: read-out: Orai1/STIM1 (IC50, μmol)
T1 construct: c-myc (C); expressed in transfected cells; host or cells: HEK-293 cells stably expressing recombinant human STIM1 and Orai1
T1 sequence (Q96D31 whole entry): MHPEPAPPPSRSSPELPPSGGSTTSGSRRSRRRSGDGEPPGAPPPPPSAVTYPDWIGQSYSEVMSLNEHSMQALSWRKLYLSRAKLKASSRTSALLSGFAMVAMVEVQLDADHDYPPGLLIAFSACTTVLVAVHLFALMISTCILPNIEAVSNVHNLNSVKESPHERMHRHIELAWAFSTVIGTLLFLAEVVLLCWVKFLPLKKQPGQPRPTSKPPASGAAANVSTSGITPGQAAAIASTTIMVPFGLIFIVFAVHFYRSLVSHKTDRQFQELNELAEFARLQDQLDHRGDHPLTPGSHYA
Excerpt: as §1
A. Fluorescence-Based Assay of Store-Operated Calcium Entry in Orai1/STIM1 Stable Cells.
Cells stably expressing recombinant human STIM1 and Orai1 are generated by transfecting a human Orai1 expression plasmid (pcDNA3.1-Orai1-cmyc) into HEK-293 cells stably overexpressing human STIM1 (Roos et al. 2005 JCB 169(3): 435-445). Colonies of cells stably expressing both STIM1 and Orai1 proteins are selected and then subcloned by limiting dilution. Cells were cultured at 37° C./6% CO2 in complete medium with 10% FBS and appropriate selection markers.
The day prior to performing the assay Orai1/STIM1 stable cells are plated in 50 μL of complete medium at 90-95% confluence in a 384 well plate. Cells are grown at 37° C./6% CO2 overnight. On the day of the assay, 1.5 μM fluo-4-AM (Invitrogen) in complete medium is added to the cells, which are then incubated for 1 hour at RT. Cells are washed once in Ca^2+-free HBSS (Hank's buffered saline solution) and 35 μl of Ca^2+-free HBSS is added to each well. Test compounds are added to wells in a 10 μL Ca^2+-free HBSS solution, prepared at 4.5× the desired final concentration, and incubated for 30 minutes at RT. The initial baseline fluorescence signal is then measured with a FLIPR^384 (Molecular Devices) plate reader. Calcium entry is initiated by adding 5 μl of 10×CaCl2 (10 mM) in HBSS, and changes in cellular fluorescence are measured with the FLIPR^384 plate reader. In each well, the magnitude of the fluorescence signal as a result of calcium entry into the cell is determined by calculating the difference between the peak fluorescence signal measured after calcium addition and the initial baseline fluorescence signal (designated Peak-Basal). IC50 values are typically calculated as the concentration that inhibited 50% of the Peak-Basal signal.

| pIC50 [1] | Orai1/STIM1 (IC50, μmol) [2] | pIC50 [2] | RBL-2H3 (IC50, μmol) [1] | SMILES |
| --- | --- | --- | --- | --- |
| > 6.22 |  | > 6.22 |  | Cc1cc(C(F)(F)F)nn1-c1ccc(NCc2c(F)cccc2F)nc1 [Compound 116, N-(2,6-difluorobenzyl)-5-(5-methyl-3-(trifluoromethyl)-1H-pyrazol-1-yl)pyridin-2-amine] |
| > 6.22 |  | 5.92 to 6.22 |  | Cc1nc(C(F)(F)F)cn1-c1ccc(NCc2c(F)cc(F)cc2F)nc1 [Compound 108, 5-(2-methyl-4-(trifluoromethyl)-1H-imidazol-1-yl)-N-(2,4,6-trifluorobenzyl)pyridin-2-amine] |
| > 6.22 |  | 5.92 to 6.22 |  | Cc1cc(F)ccc1CNc1ccc(-c2nc3c(cc2Cl)OCCO3)cn1 [Compound 46] |
| > 6.22 |  | > 6.22 |  | Fc1cccc(F)c1CNc1ccc(-n2nc(C(F)(F)F)cc2C(F)(F)F)cn1 [Compound 100, 5-(3,5-bis(trifluoromethyl)-1H-pyrazol-1-yl)-N-(2,6-difluorobenzyl)pyridin-2-amine] |
| > 6.22 |  | > 6.22 |  | Cn1nc(C(F)(F)F)cc1-c1cnc(NCc2ccccc2F)nc1 [Compound 96, N-(2-fluorobenzyl)-5-(1-methyl-3-(trifluoromethyl)-1H-pyrazol-5-yl)pyrimidin-2-amine] |
| > 6.22 |  | > 6.22 |  | COc1cc(C)c(-c2cnc(NCc3c(F)cccc3F)nc2)cn1 [Compound 128, N-(2,6-difluorobenzyl)-5-(6-methoxy-4-methylpyridin-3-yl)pyrimidin-2-amine] |
| > 6.22 |  | 5.92 to 6.22 |  | Cc1cc2c(cc1-c1ccc(NCc3c(F)cccc3F)nc1)OCCO2 [Compound 37, N-(2,6-difluorobenzyl)-5-(7-methyl-2,3-dihydrobenzo[b][1,4]dioxin-6-yl)pyridin-2-amine] |
| 5.92 to 6.22 | — |  |  | Cc1c(F)cccc1CNc1ccc(-n2cc(C(F)(F)F)nc2C)cn1 [Compound 112, N-(3-fluoro-2-methylbenzyl)-5-(2-methyl-4-(trifluoromethyl)-1H-imidazol-1-yl)pyridin-2-amine] |

More lines, now with the values behind:

| SMILES | pIC50 [1] | Orai1/STIM1 (IC50, μmol) [2] | pIC50 [2] | RBL-2H3 (IC50, μmol) [1] |
| --- | --- | --- | --- | --- |
| COc1ccc(F)cc1CNc1ccc(-c2cc3c(cc2Cl)OC(F)(F)O3)cn1 [Compound 14] | > 6.22 | — |  |  |
| Cc1cc2c(cc1-c1ccc(NCc3c(F)cccc3Cl)nc1)OC(F)(F)O2 [Compound 22] | > 6.22 |  | < 5.92 |  |
| Fc1cccc(CNc2ccc(-c3cc4c(cc3Cl)OC(F)(F)O4)cn2)c1Cl [Compound 8, 5-(6-chloro-2,2-difluorobenzo[d][1,3]dioxol-5-yl)-N-(2-chloro-3-fluorobenzyl)pyridin-2-amine] | > 6.22 |  | < 5.92 |  |
| Fc1ccc(CNc2ccc(-c3cc4c(cc3Cl)OC(F)(F)O4)cn2)c(Cl)c1 [Compound 13] | > 6.22 |  | < 5.92 |  |
| Cn1nc(C(F)(F)F)cc1-c1cnc(OCc2c(F)cccc2Cl)nc1 [Compound 69] |  | — |  | — |
| COc1cc(F)c(CNc2ncc(-c3cc4c(cc3C)OC(F)(F)O4)cn2)c(F)c1 [Compound 127, N-(2,6-difluoro-4-methoxybenzyl)-5-(2,2-difluoro-6-methylbenzo[d][1,3]dioxol-5-yl)pyrimidin-2-amine] | > 6.22 |  | > 6.22 |  |
| Cc1cc2c(cc1-c1ccc(NCc3c(F)cccc3F)cn1)OC(F)(F)O2 [Compound 6, 6-(2,2-difluoro-6-methylbenzo[d][1,3]dioxol-5-yl)-N-(2,6-difluorobenzyl)pyridin-3-amine] | > 6.22 |  | > 6.22 |  |
| FC1(F)Oc2cc(Cl)c(-c3ccc(NCc4ccccc4Cl)nc3)cc2O1 [Compound 10, 5-(6-chloro-2,2-difluorobenzo[d][1,3]dioxol-5-yl)-N-(2-chlorobenzyl)pyridin-2-amine] | > 6.22 |  | < 5.92 |  |
| Cn1nc(C(F)(F)F)cc1-c1ccc(NCc2ccc(F)cc2F)nc1 [Compound 80, 5-(1-methyl-3-(trifluoromethyl)-1H-pyrazol-5-yl)-N-(2,4-difluorobenzyl)pyridin-2-amine] | > 6.22 |  | > 6.22 |  |
| Cc1cc2c(cc1-c1cnc(OCc3c(F)cccc3Cl)nc1)OC(F)(F)O2 [Compound 70] | > 6.22 |  | < 5.92 |  |
| Fc1cccc(F)c1CNc1ccc(-c2cc3c(cc2Cl)OC(F)(F)O3)cn1 [Compound 2, 5-(6-chloro-2,2-difluorobenzo[d][1,3]dioxol-5-yl)-N-(2,6-difluorobenzyl)pyridin-2-amine] | > 6.22 |  | 5.92 to 6.22 |  |
